# Laboratory results reported in patent US20120016009A1, “Optimized Methods For Delivery Of DSRNA Targeting The PCSK9 Gene” (priority 2008, published 2012).
# In the oligonucleotide strings, read from the 5' end, every base follows the letter of its sugar. An asterisk marks phosphorothioate; unmarked linkages are phosphodiester. Other units and linkages are bracketed, terminal groups are in braces. A string of capitals states the bases alone. [Ab] = 3'-terminal abasic nucleotide; e = 2'-O-(2-methoxyethyl) (MOE); d = 2'-deoxy (DNA); m = 2'-O-methyl; r = 2'-OH (RNA); {P} = phosphate; f = 2'-fluoro
# Test system: PCSK9 mRNA
# Assay: In vitro screening of modified dsRNAs targeted to PCSK9 (Table 2b; cell type not given)
# Assay type: cell-based
# Conditions: 30 nM siRNA
# In short: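 Activity is reported as percent PCSK9 transcript remaining versus an unrelated control duplex, from eight datapoints per siRNA. Knockdown was read by Quantigene branched-DNA assay with GAPDH normalization 24 h after lipofectamine 2000 transfection of 30 nM siRNA.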
row,Substance,Remaining mRNA in % of controls at siRNA conc. of 30 nM [%]
1,"AD-12067: modified dsRNA, SEQ ID NO:1369/1370 (chain 1 GCCUGGNAGUUUAUUCGGAATT; chain 2 rUrUrCrCrGrArArUrArArArCrUrCrCrArGrGrCdT*dT; chain 1: chemistry not given here)",17
2,"AD-12068: modified dsRNA, SEQ ID NO:1371/1372 (chain 1 rGmCrCmUrGmGrAmGrUmUrUmArUmUrCmGrGmArAdTdT[Ab]; chain 2 rUrUrCrCrGrArArUrArArArCrUrCrCrArGrGrCdTdT[Ab])",18
3,"AD-12069: modified dsRNA, SEQ ID NO:1373/1374 (chain 1 rGmCrCmUrGmGrAmGrUmUrUmArUmUrCmGrGmArA; chain 2 rUrUrCrCrGrArArUrArArArCrUrCrCrArGrGrC*mC*mU)",13
4,"AD-12338: modified dsRNA, SEQ ID NO:1375/1376 (chain 1 fGmCfCmUfGmGfAmGfUmUfUmAfUmUfCmGfGmAfA; chain 2 {P}-mUfUmCfCmGfAmAfUmAfAmAfCmUfCmCfAmGfGmC)",15
5,"AD-12339: modified dsRNA, SEQ ID NO:1377/1378 (chain 1 rGmCrCmUrGmGrAmGrUmUrUmArUmUrCmGrGmArA; chain 2 {P}-mUfUmCfCmGfAmAfUmAfAmAfCmUfCmCfAmGfGmC)",14
6,"AD-12340: modified dsRNA, SEQ ID NO:1379/1380 (chain 1 rGmCmCmUrGrGrArGmUmUmUrAmUmUmCrGrGrArA; chain 2 {P}-mUfUmCfCmGfAmAfUmAfAmAfCmUfCmCfAmGfGmC)",19
7,"AD-12341: modified dsRNA, SEQ ID NO:1381/1382 (chain 1 fGmCfCmUfGmGfAmGfUmUfUmAfUmUfCmGfGmAfAdT*dT; chain 2 {P}-mUfUmCfCmGfAmAfUmAfAmAfCmUfCmCfAmGfGmCdT*dT)",12
8,"AD-12342: modified dsRNA, SEQ ID NO:1383/1384 (chain 1 fGmCfCmUfGmGfAmGfUmUfUmAfUmUfCmGfGmAfAdT*dT; chain 2 rUrUrCrCrGrArAmUrArArArCrUrCmCrArGrGrCdT*dT)",13
9,"AD-12343: modified dsRNA, SEQ ID NO:1385/1386 (chain 1 fGmCfCmUfGmGfAmGfUmUfUmAfUmUfCmGfGmAfAdT*dT; chain 2 mUrUmCrCrGrArAmUrArArArCrUmCmCrArGrGrCdT*dT)",24
10,"AD-12344: modified dsRNA, SEQ ID NO:1387/1388 (chain 1 fGmCfCmUfGmGfAmGfUmUfUmAfUmUfCmGfGmAfAdT*dT; chain 2 rUrUrCrCrGrArArUrArArArCrUrCrCrArGrGrCdT*dT)",9
11,"AD-12345: modified dsRNA, SEQ ID NO:1389/1390 (chain 1 fGmCfCmUfGmGfAmGfUmUfUmAfUmUfCmGfGmAfAdT*dT; chain 2 rUrUrCrCrGrArArUrArArArCrUrCrCrArGrGrC*mC*mU)",12
12,"AD-12346: modified dsRNA, SEQ ID NO:1391/1392 (chain 1 fGmCfCmUfGmGfAmGfUmUfUmAfUmUfCmGfGmAfAdT*dT; chain 2 rUrUrCrCrGmAmArUrAmAmArCrUrCrCrAmGmGmC*mC*mU)",13
13,"AD-12347: modified dsRNA, SEQ ID NO:1393/1394 (chain 1 rGrCrCrUrGrGrArGrUrUrUrArUrUrCrGrGrArAdT*dT; chain 2 {P}-mUfUmCfCmGfAmAfUmAfAmAfCmUfCmCfAmGfGmCdT*dT)",11
14,"AD-12348: modified dsRNA, SEQ ID NO:1395/1396 (chain 1 rGmCmCmUrGrGrArGmUmUmUrAmUmUmCrGrGrArAdT*dT; chain 2 {P}-mUfUmCfCmGfAmAfUmAfAmAfCmUfCmCfAmGfGmCdT*dT)",8
15,"AD-12349: modified dsRNA, SEQ ID NO:1397/1398 (chain 1 GCCUGGNAGUUUAUUCGGAATT; chain 2 {P}-mUfUmCfCmGfAmAfUmAfAmAfCmUfCmCfAmGfGmCdT*dT; chain 1: chemistry not given here; further chemistry not fully specified)",11
16,"AD-12350: modified dsRNA, SEQ ID NO:1399/1400 (chain 1 fGmCfCmUfGmGfAmGfUmUfUmAfUmUfCmGfGmAfAdTdT[Ab]; chain 2 {P}-mUfUmCfCmGfAmAfUmAfAmAfCmUfCmCfAmGfGmCdTdT[Ab])",17
17,"AD-12351: modified dsRNA, SEQ ID NO:1401/1402 (chain 1 fGmCfCmUfGmGfAmGfUmUfUmAfUmUfCmGfGmAfA; chain 2 {P}-mUfUmCfCmGfAmAfUmAfAmAfCmUfCmCfAmGfGmC*fC*mU)",11
18,"AD-12352: modified dsRNA, SEQ ID NO:1403/1404 (chain 1 fGmCfCmUfGmGfAmGfUmUfUmAfUmUfCmGfGmAfA; chain 2 rUrUrCrCrGmAmArUrAmAmArCrUrCrCrAmGmGmC*mC*mU)",11
19,"AD-12354: modified dsRNA, SEQ ID NO:1405/1406 (chain 1 fGmCfCmUfGmGfAmGfUmUfUmAfUmUfCmGfGmAfA; chain 2 rUrUrCrCrGrArArUrArArArCrUrCrCrArGrGrC*mC*mU)",11
20,"AD-12355: modified dsRNA, SEQ ID NO:1407/1408 (chain 1 fGmCfCmUfGmGfAmGfUmUfUmAfUmUfCmGfGmAfA; chain 2 rUrUrCrCrGrArAmUrArArArCrUrCmCrArGrGrCdT*dT)",9
21,"AD-12356: modified dsRNA, SEQ ID NO:1409/1410 (chain 1 fGmCfCmUfGmGfAmGfUmUfUmAfUmUfCmGfGmAfA; chain 2 mUrUmCrCrGrArAmUrArArArCrUmCmCrArGrGrCdT*dT)",25
22,"AD-12357: modified dsRNA, SEQ ID NO:1411/1412 (chain 1 GCCUGGAGUUUAUUCGGAA; chain 2 rUrUrCrCrGmAmArUrAmAmArCrUrCrCrAmGmGmC; chain 1: sugars from the 5' end rererererererererer, all phosphodiester, methylation of C and T or U not given here)",56
23,"AD-12358: modified dsRNA, SEQ ID NO:1413/1414 (chain 1 GCCUGGAGUUUAUUCGGAA; chain 2 {P}-mUfUmCfCmGfAmAfUmAfAmAfCmUfCmCfAmGfGmC; chain 1: sugars from the 5' end rererererererererer, all phosphodiester, methylation of C and T or U not given here)",29
24,"AD-12359: modified dsRNA, SEQ ID NO:1415/1416 (chain 1 GCCUGGAGUUUAUUCGGAA; chain 2 {P}-mUfUmCfCmGfAmAfUmAfAmAfCmUfCmCfAmGfGmC*fC*mU; chain 1: sugars from the 5' end rererererererererer, all phosphodiester, methylation of C and T or U not given here)",30
25,"AD-12360: modified dsRNA, SEQ ID NO:1417/1418 (chain 1 GCCUGGAGUUUAUUCGGAA; chain 2 rUrUrCrCrGrArArUrArArArCrUrCrCrArGrGrC*mC*mU; chain 1: sugars from the 5' end rererererererererer, all phosphodiester, methylation of C and T or U not given here)",15
26,"AD-12361: modified dsRNA, SEQ ID NO:1419/1420 (chain 1 GCCUGGAGUUUAUUCGGAA; chain 2 rUrUrCrCrGrArAmUrArArArCrUrCmCrArGrGrCdT*dT; chain 1: sugars from the 5' end rererererererererer, all phosphodiester, methylation of C and T or U not given here)",20
27,"AD-12362: modified dsRNA, SEQ ID NO:1421/1422 (chain 1 GCCUGGAGUUUAUUCGGAA; chain 2 mUrUmCrCrGrArAmUrArArArCrUmCmCrArGrGrCdT*dT; chain 1: sugars from the 5' end rererererererererer, all phosphodiester, methylation of C and T or U not given here)",51
28,"AD-12363: modified dsRNA, SEQ ID NO:1423/1424 (chain 1 GCCUGGAGUUUAUUCGGAA; chain 2 rUrUrCrCrGmAmArUrAmAmArCrUrCrCrAmGmGmC*mC*mU; chain 1: sugars from the 5' end rererererererererer, all phosphodiester, methylation of C and T or U not given here)",11
29,"AD-12364: modified dsRNA, SEQ ID NO:1425/1426 (chain 1 GCCUGGAGUUUAUUCGGAATT; chain 2 rUrUrCrCrGmAmArUrAmAmArCrUrCrCrAmGmGmCdT*dT; chain 1: sugars from the 5' end rerererererererererdd, linkages o19 s1 (s phosphorothioate, o phosphodiester), methylation of C and T or U not given here)",25
30,"AD-12365: modified dsRNA, SEQ ID NO:1427/1428 (chain 1 GCCUGGAGUUUAUUCGGAATT; chain 2 rUrUrCrCrGrArAmUrArArArCrUrCmCrArGrGrCdT*dT; chain 1: sugars from the 5' end rerererererererererdd, linkages o19 s1 (s phosphorothioate, o phosphodiester), methylation of C and T or U not given here)",18
